Columns and labels:
IL-6 = IL-6 ELISA in hippocampus, Aβ25-35 oligomer neuroprotection design; assay type: in vivo; settings: 0.3 mg/Kg i.p., compared to intoxicated but untreated mice
Protocol: (§1) The neuroprotective effect of the compounds, i.e. the ability thereof to protect cells from Aβ25-35 oligomer neurotoxicity and neurodegeneration, is also tested (FIG. 10). The test compounds are thus administered on the same day as the injection of the Aβ25-35 oligomers and are continued to be administered on a daily basis up to day 7 after the injection of the oligomers, at which time the mice are subjected to the YMT, PAT, MWT or ORT. The brain's anatomy is analysed and neuronal cells are counted by immunohistochemistry on mice sacrificed at D13. The biochemical analyses for the quantification of markers of oxidative stress and apoptosis were carried out at D16 on a group of mice that had been subjected to the WMT (FIG. 10).
(§2) Their brains were removed, and the hippocampi were isolated, weighed and frozen at −80° C. awaiting biochemical analysis.
Interleukin 6 (IL-6), a cytokine inflammatory marker, and the levels of the apoptosis markers Bcl2 and Bax proteins were measured in mouse hippocampi by the ELISA tests listed in Table 1 hereinbelow. Bcl2 is often referred to as an anti-apoptotic marker and Bax as a pro-apoptotic marker. […] After centrifugation (10,000 g, 5 min, 4° C.), the supernatants containing the markers to be measured were aliquoted and stored at −80° C. until the ELISA test was carried out according to the supplier's instructions. […]

[1] = system: viable neurons in the CA1 area of the hippocampus; assay: Quantification of viable neurons in area CA1 (cresyl violet); assay type: in vivo; settings: 0.3 mg/Kg i.p., oligomer-intoxicated mice (not shown)
Protocol: The neuroprotective effect of the compounds, i.e. the ability thereof to protect cells from Aβ25-35 oligomer neurotoxicity and neurodegeneration, is also tested (FIG. 10). The test compounds are thus administered on the same day as the injection of the Aβ25-35 oligomers and are continued to be administered on a daily basis up to day 7 after the injection of the oligomers, at which time the mice are subjected to the YMT, PAT, MWT or ORT. The brain's anatomy is analysed and neuronal cells are counted by immunohistochemistry on mice sacrificed at D13. The biochemical analyses for the quantification of markers of oxidative stress and apoptosis were carried out at D16 on a group of mice that had been subjected to the WMT (FIG. 10). […]
In Alzheimer's patients, a decrease in neurons has been reported in the CA1 region (and to a lesser extent in the CA3 region). […] In order to quantify viable neurons in the CA1 region of the mouse hippocampus, the corresponding sections were stained with cresyl violet (0.12%, Sigma-Aldrich), dehydrated with ethanol, treated with xylene and mounted with a mounting medium (Mountex medium, BDH Laboratory Supplies) and dried at 24° C. at ambient temperature. The images were recorded and analysed (Nanozoomer virtual microscopy system, Hamamatsu, Massy, France). […]

Iba-1 = assay: Immunohistochemical quantification of Iba-1 (microgliosis); assay type: in vivo, mice; settings: 0.3 mg/Kg i.p.
Protocol: as §1
They were previously anaesthetised by i.p. injection of 200 μL of a solution of ketamine (80 mg/Kg) and xylazine (10 mg/Kg), then the tissues were fixed by intracardiac perfusion of 50 mL of a saline solution followed by 50 mL of Antigenfix® fixative (Diapath). The samples were kept for a further 48 hours in the fixative at 4° C., and then the mouse brains were stored in a 30% sucrose solution in PBS, before being sliced.
Slices were taken of each area of the brain, in particular the cortex, the nucleus basalis magnocellularis and the hippocampus (i.e. between bregma +1.8 and bregma −2.8 according to the stereotaxic coordinates of the mouse brain, Paxinos et al., 2004). Serial coronal sections with a thickness of 25 μm were cut with a freezing microtome (Microm HM 450, Thermo Fisher) and stored at −20° C. in a cryoprotective solution. […]
Immunohistochemical labelling is carried out in a conventional manner. […] After rinsing with PBS, the sections were mounted in a mounting fluid (ProLong, ThermoFischer) and images of each section were taken with a confocal fluorescence microscope (Leica SPE) for different sub-regions of the hippocampus such as the stratum radiatum (Rad), the stratum moleculare (Mol), the polymorphic layer of the dentate gyrus (PoDG) and for the cortex, the lateral parietal association area (LPtA). […]

Bax and Bcl-2 = Bax and Bcl-2 ELISA in hippocampus, Aβ25-35 oligomer neuroprotection design; assay type: in vivo, mice; settings: 0.3 mg/Kg; for Bax protein levels in the hippocampus: compared to the intoxicated, untreated group (not shown)
Protocol: as §1, §2
Interleukin 6 (IL-6), a cytokine inflammatory marker, and the levels of the apoptosis markers Bcl2 and Bax proteins were measured in mouse hippocampi by the ELISA tests listed in Table 1 hereinbelow. Bcl2 is often referred to as an anti-apoptotic marker and Bax as a pro-apoptotic marker. Both hippocampi of 6-8 animals per condition were used. The tissues were homogenised after thawing in cell lysis buffer (1 mL, 3 IS007, Cloud-Clone) and sonicated on ice (2×10 s). After centrifugation (10,000 g, 5 min, 4° C.), the supernatants containing the markers to be measured were aliquoted and stored at −80° C. until the ELISA test was carried out according to the supplier's instructions. The results are expressed in ng of marker per mg of total protein and as a percentage of the control (mice not intoxicated with Aβ25-35 and not treated with the test compounds).

Structure (SMILES) | IL-6 level in the hippocampus (IL-6) | number of viable neurons in the CA1 area [1] | thickness of the CA1 area [1] | Iba-1 labelling (microglial response) (Iba-1; all brain areas tested (Rad, Mol, PoDG, LPtA)) | Bax/Bcl-2 ratio in the hippocampus (Bax and Bcl-2) | Bax protein levels in the hippocampus (Bax and Bcl-2) | Iba-1 labelling (microglial response) (Iba-1; PoDG area) | Iba-1 labelling (microgliosis) (Iba-1; cortex (LPtA))
NC12CC3CC(C1)CC(CCF)(C3)C2 [FENM, 3-(2-fluoroethyl)adamantan-1-amine] | significantly lower than that of untreated, intoxicated mice | maintained the number of viable neurons in the CA1 area of the hippocampus | counteracted the increase in thickness of this area | significantly decreases the astrocytic and microglial response in all of the brain areas tested | significantly decreased the Bax/BcI-2 ratio | significantly reduced | – | –
CC12CC3CC(C)(C1)CC(N)(C3)C2 [memantine, 3,5-Dimethyl-1-adamantanamine, reference compound] | did not result in a significant decrease in IL-6 levels | – | – | – | – | significantly reduced | positive effect in the PoDG area | no effect

Source: patent publication US12611387B2, “Compound and composition for inducing neuroprotection” (REST THERAPEUTICS, priority 2020, dated 2026)
